Literature values, collected in patent US12653912B2 (SHENZHEN CHINA RESOURCES JIUCHUANG MEDICAL AND …, priority 2020, dated 2026).

Settings: 75 mg/m^2, intravenous bolus injecting

O=C1c2c(O)ccc(O)c2C(=O)c2c(NCCNCCO)ccc(NCCNCCO)c21 [mitoxantrone]
AUC at the maximum tolerated total dosage: 560 to 1700 ng·h/mL
